Key:
[1] = ^1O2 generation upon X-ray irradiation (ESR, TEMP trap); assay type: physicochemical; conditions: for ^1O2 generation / radiodynamic activity: X-ray irradiation, ESR
Method: To study ^1O2 generation, a mixture of DPAS or IDPAS (100 M) and TEMP (10 mM) in PBS (0.01 M, pH 7.4, 50% DMSO) was irradiated by X-rays at 2 Gy (100 mGy s^−1 for 20 s) or 5 mGy (250 μGy s^−1 for 20 s). The ESR signals of the mixture were recorded with a Bruker A300 instrument. The ESR signal of the free radical 2,2,6,6-tetramethyl-1-piperidinyloxyl (g=2.0060) was generated by the reaction of ^1O2 with TEMP. The ^1O2 quencher NaN3 (1 mM) was added to validate the afterglow mechanism of IDPASu. Additionally, other commercially available radio sensitizers (such as acridine orange, hematoporphyrin and verteporfin) were measured and compared. The procedure of block depths was similar to that of the tissue penetration depth study and the ^1O2 generation for different depth tissues was measured. The ESR signal changes of MRAP in the absence or presence of CatB were measured in a similar way. The ESR signals of 2,2,6,6-tetramethyl-1-piperidinyloxyl from the reaction of ^1O2 with TEMP were plotted as a function of the concentration of ^1O2, which was generated by the addition of NaOCl to H2O2. This generated the standard curve between the ESR intensity and ^1O2 concentration.

[2] = Radio afterglow spectra, intensity and half-life of luminophores in PBS after X-ray; assay type: physicochemical; conditions: for radio afterglow brightness / intensity: X-ray irradiation; for radio afterglow intensity increase versus iodine-free counterpart: 100 μM, PBS pH 7.4, 50% DMSO, X-ray 5 mGy
Method: The optical properties of DPAs and IDPAs were investigated in an aqueous solution (FIGS. 2 and 3). […] Their half-lives ranged from 9.2 to 196.8 min (FIG. 4e).
DPAs or IDPAs (100 μM) in 0.01 M PBS (pH 7.4, 50% DMSO) were irradiated by X-rays at 250 μGy s^−1 for 20 s (total, 5 mGy) under the specific setup parameter of 10 kV and 75 μA. Then, the radio afterglow signal was collected with an IVIS imaging system under the bioluminescence mode with an open filter and an acquisition time of 60 s. Finally, the radio afterglow intensities were quantified by a region-of-interest analysis using Living Image 4.3 software. In addition, the radio afterglow spectra of the candidates were acquired under the same test conditions with specific emission filters, and time courses of the signal were recorded as a function of time.

Structure (SMILES) | ^1O2 generation / radiodynamic activity [1] | radio afterglow brightness / intensity [2] | ^1O2 generation versus that of IDPAs ([1]; X-ray 5 mGy) | radio afterglow intensity increase versus iodine-free counterpart [2]
COC(=C1C2CC3CC(C2)CC1C3)c1c(/C=C/C2=CC(=C(C#N)C#N)c3ccccc3O2)cc(I)c(O)c1I [DIDPAO] | slightly increase | extremely low | – | –
COC(=C1C2CC3CC(C2)CC1C3)c1c(/C=C/C2=CC(=C(C#N)C#N)c3ccccc3S2)cc(I)c(O)c1I [DIDPAS] | slightly increase | extremely low | ~ 1.2 fold | –
COC(=C1C2CC3CC(C2)CC1C3)c1cc(O)ccc1/C=C/C1=CC(=C(C#N)C#N)c2ccccc2S1 [DPASu, DBTP-phenoxy-adamantylidene] | generation of ^1O2 | – | – | –
COC(=C1C2CC3CC(C2)CC1C3)c1cc(O)c(I)cc1/C=C/C1=CC(=C(C#N)C#N)c2ccccc2O1 [IDPAO] | – | – | – | ~ 1.62 fold
COC(=C1C2CC3CC(C2)CC1C3)c1cc(O)c(I)cc1/C=C/C1=CC(=C(C#N)C#N)c2ccccc2[Se]1 [IDPASe] | – | – | – | 6.65 fold

From patent US20260335468A1, “MOLECULAR RADIOAFTERGLOW PROBES FOR CANCER RADIODYNAMIC THERANOSTICS” (NANYANG TECHNOLOGICAL UNIVERSITY, priority 2023, published 2026)
